# Test results taken from PMC8213385, “Development of a Fluorescent Assay to Search New Drugs Using Stable tdTomato-Leishmania, and the Selection of Galangin as a Candidate With Anti-Leishmanial Activity” (Frontiers in Cellular and Infection Microbiology, 2021).
# Like-named read-outs stand apart in the source and are kept apart here.
# Key:
# [1] = test system: intracellular amastigotes of L. (L.) amazonensis; assay: Microscopic assay, counting intracellular amastigotes in Raw 264.7 macrophages at the optic microscope; assay type: cell-based, Leishmania (Leishmania) amazonensis; conditions: for SI (Selectivity index): CC50 for macrophages/IC50 for Leishmania (intracellular amastigotes; Ma from fluorescence IC50); for IC50: Leishmania amazonensis, RAW264.7, Raw 264.7 macrophages, 48 h, optic microscope, read-out: Microscopic IC50 μM (SE), intracellular amastigotes
# Protocol: (§1) Furthermore, the efficacy of MI was also determined against intracellular amastigotes of L. amaz/tc3 and L. amaz/wt. Raw 264.7 macrophages were plated in 96-well black plate (5 x 10^4 cells/well) and in eight well Lab-Tek tissue culture slides (6.6 x 10^4 cells/ml) (Nunc, USA). The cells were infected with promastigotes in stationary phase of L. amaz/tc3 and L. amaz/wt (1:20 ratio) at 33°C, 5% CO2. After incubation, the infected macrophages were washed to remove non-internalized parasites with PBS plus P-S. New RPMI-1640 medium with different concentrations of MI (20 to 0.62 µg/ml) was added to each well and incubated at 33°C, 5% CO2 during 48 h. The anti-leishmanial activity of MI was determined by measuring the fluorescence of intracellular amastigotes of L. amaz/tc3 in a plate reader (Tecan, Männedorf, Switzerland). The viability was calculated as mentioned above, and the IC50 was also estimated. Simultaneously, the leishmanicidal activity of MI against L. amaz/wt was determined by the microscopy test. In this case, the infected macrophages were stained with Diff Quik (Biopur S.R.L., Rosario, Argentina) and the number of intracellular amastigotes was determined in 200-500 macrophages in treated and control cultures per slide under the immersion lens microscope (100x) (Leitz Wetzlar, Germany). The infection index (II) and the % infectivity (I) were calculated by the following formulas: II = IM × A, where IM= infected macrophages (%), A= number of amastigotes per infected macrophages; and I(%)=IIT/IIc×100, where IIT= infection index in treated cultures, IIC= infection index in control cultures ([Ayres et al., 2008]). The IC50 of MI was calculated.
# Then, to estimate the IC50 values of GAL, FI and MO; and to confirm the IC50 of RU, the activity was evaluated quantifying the intracellular amastigotes at the optic microscope. We followed the same methodology described for MI (microscopic assay) in “In Vitro, Fluorescent Assay Validation” section and the range of concentrations were for GAL (30 to 7.5 µM), FI (60 to 15 µM), RU and MO (200 to 50 µM), EGCG (142 a 17.7 µM).
# [2] = Cytotoxicity in macrophage cell line by the MTT method (colorimetric); assay type: cell-based; conditions: mouse
# Protocol: The cytotoxicity against a cell line of macrophages (Raw 264.7) of GAL, MO, FI, RU, EGCG, PE, MI and MA was determined by the MTT method. Cells (3.3 x 10^5/ml) cells were treated with different concentrations of each compound during 48 h at 37°C, 5% CO2. The controls were incubated with RPMI-1640 medium. Briefly, 50 µl of MTT (2 mg/mL) was added to each well and, after 4 h of incubation at 37°C, 5% CO2, the reaction was stopped dissolving the formazan crystals with 100 µl/well of dimethyl sulfoxide. The relative amount of formazan produced by viable macrophages was determined using a spectrophotometer at 595 nm. The percentage of viable cells was calculated according to the formula (OD treated culture−OD blank)/(OD control−OD blank) ×100 as was described previously ([Adinehbeigi et al., 2017]). The cytotoxicity concentration 50% (CC50) was calculated for each compound.
# [3] = test system: promastigotes of L. amaz/tc3; assay: Transmission electron microscopy of treated promastigotes; assay type: cell-based, Leishmania (Leishmania) amazonensis; conditions: exposed to the IC50, 48 h
# Protocol: Ultrastructural alterations in Leishmania induced by flavonoids with anti-leishmanial activity were analyzed by transmission electron microscopy (TEM). […] The control was a culture of L. amaz/tc3 incubated in complete RPMI-1640 medium. After 48 h of incubation, samples of L. amaz/tc3 promastigotes from each culture were fixed in modified Karnovsky’s solution (formaldehyde [2.66%], glutaraldehyde [1.66%]) and PBS 0.1M (pH 7,4), and incubated overnight at 4°C. The fixed samples were post-fixed with a 1/1 solution of PBS/2% osmium tetroxide (OsO4), overnight. Then the material was dehydrated and included in Spurr (Pelco, USA). Ultrathin sections were cut with an ultramicrotome (MT1, Sorvall, USA), mounted on copper grids, and contrasted with uranyl acetate (PELCO, USA) and lead citrate.
# [4] = test system: promastigotes of L. amaz/tc3; assay: Fluorescence assay against promastigotes of L. amaz/tc3 (tdTomato); assay type: cell-based, Leishmania (Leishmania) amazonensis; conditions: 48 h; for IC50: Leishmania; for Inhibition of parasite growth (promastigotes): doses ≤ 40 µM, fluorescence assay
# Protocol: Then, we evaluated the efficacy of MI, a reference drug for leishmaniasis by the fluorescence method (L. amaz/tc3) and by the conventional method based in counting the parasite at the optic microscope (L. amaz/wt). Mid-log promastigotes of L. amaz/tc3 and L. amaz/wt were harvest and seeded (1 x 10^6/0.1 ml) with different concentrations of MI (40 to 0.6 µg/ml) in a 96-well plate at 23°C. Promastigotes cultured only in medium were the controls. Parasite viability was determined by measuring the fluorescence of L. amaz/tc3 in a plate reader (Tecan, Männedorf, Switzerland) and by counting the mobile promastigotes in a Neubauer chamber at the optic microscope (40x) (Leitz Wetzlar, Germany) at 48 h of incubation with MI. Viability was calculated with the formula: ViabilityL.amaz/tc3 =FLt/FLc×100 where, FLt is the fluorescence of treated culture, and FLc is the fluorescence of control; ViabilityL.amaz/wt=NPt/NPc×100 where, NPt is the number of promastigotes in the treated culture, and NPc is the number of promastigotes in control culture. Then, the 50% inhibitory concentration (IC50) of MI was estimated.
# After fluorescence assay validation as it is described above, the method was used to evaluate in vitro the flavonoids anti-leishmanial activity. Mid-log promastigotes of L. amaz/tc3 were harvest and seeded with different concentrations of GAL (1,200 to 18.75 µM), MO, FI and RU (40 to 1.25 µM), and EGCG (300 to 18.75 µM). Positive control were promastigotes treated with PE (4 to 0.25 µM), the negative control were promastigotes cultured with medium only, and the blank was the culture medium. The parasites were incubated at 23°C for 48 h. The anti-leishmanial activity was determined by measuring the parasite fluorescence in a plate reader (Tecan, Männedorf, Switzerland). The viability was estimated as was described above for MI (fluorescent assay). The IC50 was calculated for each compound.
# [5] = test system: intracellular amastigotes of L. amaz/tc3; assay: Fluorescence assay in the macrophage-amastigote model (Raw 264.7 infected with L. amaz/tc3); assay type: cell-based, Leishmania (Leishmania) amazonensis
# Protocol: as §1
# The flavonoids anti-leishmanial activity was also evaluated against intracellular amastigotes. Macrophages (Raw 264.7) were plated in 96-well black plate (5 x 10^4 cell/well) and infected with promastigotes in stationary phase of L. amaz/tc3 (1:20 ratio) at 33°C, 5% CO2. After incubation, the infected macrophages were washed to remove non-internalized parasites with PBS plus P-S. New RPMI-1640 medium with different concentrations of GAL (30 to 3.75 µM), MO (300 to 37.5 µM), FI (65 to 8.12 µM), RU (300 to 37.5 µM) and EGCG (30 to 7.5 µM) was added to each well and incubated at 33°C, 5% CO2 for 48 h. Infected cells treated with Ma (136.6 to 34.1 µM) were the positive controls, and cells incubated only with RPMI-1640 were the negative control. The infected macrophages were incubated during 48 h at 33°C, 5% CO2. After treatment, the fluorescence of intracellular amastigotes of L. amaz/tc3 was measured in a plate reader (Tecan, Männedorf, Switzerland). The viability was determined as was described for MI (fluorescent assay). The selectivity index (SI) (CC50 for macrophages/IC50 for Leishmania) was calculated.
# [6] = test system: promastigotes of L. (L.) amazonensis; set-up: method as in Escobar et al., 2002; Morais-Teixeira et al., 2011; conditions: published data ref Escobar et al., 2002; Morais-Teixeira et al., 2011; cited from earlier work
# [7] = test system: amastigotes of L. (L.) amazonensis; set-up: method as in Escobar et al., 2002; Morais-Teixeira et al., 2011; conditions: published data ref Escobar et al., 2002; Morais-Teixeira et al., 2011; cited from earlier work
# [8] = test system: L. amaz/tc3; assay: Efficacy of Ma in BALB/c mice infected with L. amaz/tc3; assay type: in vivo
# Protocol: Female BALB/c mice were infected in their hind right footpad with the stationary phase of promastigotes (5 x 10^6 parasites/0.05 ml) of L. amaz/tc3. Once a week the footpad swelling was measured with the digital caliper. Mice (n = 5) were treated with Ma in PBS (120 mg Sb/kg/day) starting at week 9 post-infection; the antimonial was administered by intraperitoneal injection (ip) once a day for 21 days. Control group (n = 5) received only PBS (ip). Within a week of finishing the Ma treatment, the parasite load was quantified by three methods, fluorescence (FL), optic microscope (OM) and limiting dilution assay (LD) in treated and control group. The FL method was carried out as follows, the hind right footpad was excised and weighed; then the tissue was homogenized using a glass grinder with 5 ml of complete RPMI-1640 medium and the intracellular amastigotes of L. amaz/tc3 were released. A sample (0.1 ml) of the homogenate was centrifuged to replace the medium for PBS, then it was plated in duplicates in a 96-well black culture plate with clear bottom (Nunc, USA) and the fluorescence was measured in a plate reader (Tecan, Männedorf, Switzerland). Besides, a calibration curve was used to extrapolate the sample fluorescence to the number of amastigotes. For that, a pool of amastigotes from control samples was used; amastigotes (1 x 10^6 to 1.5 x 10^4) were plated in duplicates in a 96-well black culture plate with clear bottom, and the fluorescence was measured in a plate reader (Tecan, Männedorf, Switzerland). The number of amastigotes was adjusted to the weight of the sample.
# Another sample of the tissue homogenate was used to quantify the parasite loads by direct counting in a Neubauer chamber under an optical microscope (40X) (Leitz Wetzlar, Germany), and the concentration of parasites (amastigotes/ml) of each homogenate was determined ([Hill et al., 1983]). The total number of parasites was adjusted to the weight of each tissue sample.
# Finally, a sample of the tissue homogenate was also used to quantify the parasite loads by the LD assay ([Lima et al., 1997]). After serial dilutions in 96-well plates, the samples were incubated at 23°C for 14 days and the number of viable promastigotes was determined from the highest dilution at which the parasite could grow.
# [9] = Raw 264.7 macrophage cell line, Raw 264.7, MTT, 48 h, read-out: Colorimetric CC50 μM (SE)
# [10] = read-out: IC50 against promastigotes of L. amaz/tc3
# [11] = 120 mg Sb/kg/day ip, 21 days, week 13, footpad
compound,measurement,setting,value
"O=C(O[C@@H]1Cc2c(O)cc(O)cc2O[C@@H]1c1cc(O)c(O)c(O)c1)c1cc(O)c(O)c(O)c1 [EGCG, (-)-epigallocatechin gallate, reference compound]",SI (Selectivity index),[1],1.5
same,IC50,[1],130 µM
same,CC50 at 48 h,[2]; [9],194 µM
same,Ultrastructural alterations in promastigotes (TEM),[3],intense cytoplasmic vacuolization
same,IC50,[4]; [10],120 ± 17.6 µM
"O=c1c(O)c(-c2ccc(O)c(O)c2)oc2cc(O)ccc12 [FI, fisetin]",SI (Selectivity index),[1],< 1
same,IC50,[1],> 60 µM
same,CC50 at 48 h,[2]; [9],52.6 µM
same,Fluorescence Inhibition (%) of amastigotes,"[5]; 15 µM, 48 h",31%
same,inhibition at 15 µM,"[5]; Leishmania, RAW264.7, 48 h, read-out: Fluorescence Inhibition (%) of amastigotes, 15 µM, 48 h",29 to 31%
same,Inhibition of parasite growth (promastigotes),[4],no inhibition
"CCCCCCCCCCCCCCCCOP(=O)([O-])OCC[N+](C)(C)C [MI, Miltefosine, reference compound]",Effective dose for promastigotes,[6],7.54 µg/mL
same,IC50,"[5]; Leishmania, RAW264.7, 48 h, read-out: IC50 against intracellular amastigotes",1.65 ± 0.75 µg/mL
same,IC50,[4]; read-out: IC50 against promastigotes,5.25 ± 0.05 µg/mL
same,Effective dose for amastigotes,[7],1.31 µg/mL
"O=c1c(O)c(-c2ccc(O)cc2O)oc2cc(O)cc(O)c12 [MO, morin]",SI (Selectivity index),[1],> 1.8
same,IC50,[1],122 µM
same,CC50 at 48 h,[2]; [9],> 230 µM
same,inhibition at 37.5 µM,"[5]; Leishmania, RAW264.7, 48 h, read-out: Fluorescence Inhibition (%) of amastigotes, 37.5 µM, 48 h",13.5%
same,Inhibition of parasite growth (promastigotes),[4],no inhibition
"N=C(N)c1ccc(OCCCCCOc2ccc(C(=N)N)cc2)cc1 [PE, Pentamidine isethionate, reference compound]",IC50,[4]; [10],0.67 ± 0.18 µM
"C[C@@H]1O[C@@H](OC[C@H]2O[C@@H](Oc3c(-c4ccc(O)c(O)c4)oc4cc(O)cc(O)c4c3=O)[C@H](O)[C@@H](O)[C@@H]2O)[C@H](O)[C@H](O)[C@H]1O [RU, rutin]",SI (Selectivity index),[1],> 1.8
same,IC50,[1],133 µM
same,CC50 at 48 h,[2],> 240 µM
same,IC50,"[5]; Leishmania, RAW264.7, 48 h, read-out: Fluorescence IC50 μM (SE), intracellular amastigotes",171 µM
same,Inhibition of parasite growth (promastigotes),[4],no inhibition
Meglumine antimoniate [Ma],IC50,"[5]; Raw 264.7 macrophages, 48 h, 33°C, read-out: Fluorescence IC50 μM (SE), intracellular amastigotes",80.3 µM
same,"Inhibition of parasite burden, fluorescence method (FL)",[8]; [11],55%
same,"Inhibition of parasite burden, limiting dilution (LD) assay",[8]; [11],54%
same,"Inhibition of parasite burden, optic microscope (OM)",[8]; [11],75%
same,Footpad swelling versus control group,"[8]; 120 mg Sb/kg/day ip, week 13, p < 0.05",significant difference
same,"Percentage of inhibition in the parasite load, fluorescence and LD assay","[8]; end of treatment, both methods",54-55%
